Consider 18 compounds from patent US6924278B2, “Aroyl-piperazine derivatives, their preparation and their use as tachykinin antagonists” (Fujisawa Pharmaceutical Co., Ltd., priority 1997, dated 2005).

Data set [1] deals with T1, h-NK1 receptors (Homo sapiens, UniProt P25103).
T1 construct: expressed in transfected cells; host or cells: CHO cells (permanent expression), crude cell membranes
Description: Evaluation of NK1 antagonist transport efficiency to the central nervous system using a h-NK1 receptor binding assay (brain extract after i.v. dosing of rats). Conditions: 5 min; compound extracted from brain of male SD rats 5 min after i.v. injection at the dose of 1 mg/kg; CHO cell membranes expressing h-NK1; read-out: inhibition rate of 125I-BH-Substance P binding to h-NK1 receptors. The procedure: A. Evaluation of NK1 Antagonist Transport Efficiency to the Cental Nervous System using a h-NK1 Receptor Binding Assay
(1) Administration of Test Compound and Extraction of the Compound from Brain
Male SD rats were given an i.v. injection of a solution containing a test compound (1 mg/kg). 5 Min later the animals were anesthetized by ether, bled and perfused through the aorta ascendens with 20 ml of saline. The brain was rapidly removed, weighed and homogenized in 4 vol. ice-cold distilled water by using Polytoron (KINEMATICA). To extract the test compound, 500 μl of the homogenate, 100 μl of methanol, 500 μl of 0.1 N NaOH and 4 ml of ethyl acetate were mixed by shaking for 10 min at room temperature. The organic phase (2.5 ml) was recovered by centrifugation at 3,000 rpm for 10 min, dried and dissolved in dimethyl sulfoxide.
(2) h-NK1 Receptor Binding Assay
(a) Crude CHO Cell Membrane Preparation
CHO cells permanently expressing h-NK1 receptors were harvested and homogenized with a Dounce homogenizer at 4° C. in a buffer (0.25 M sucrose, 25 mM Tris-HCl (pH 7.4), 10 mM MgCl2, 1 mM EDTA, 5 μg/ml p-APMSF). The homogenate was centrifuged (500×g, 10 min), and the pellet was resuspended in the same buffer, homogenized, and centrifuged. The two supernatants were combined and centrifuged (100,000×g, 1 hour). The crude cell membranes thus isolated were resuspended in a buffer (25 mM Tris-HCl (pH 7.4), 10 mM MgCl2, 1 mM. EDTA, 5 μg/ml p-APMSF) and stored at −80° C. until use.
(b) ^125I-BH-Substance P Binding to the Prepared Membrane
Cell membranes (6 μg/ml) were incubated with ^125I-BH-Substance P (0.1 nM) with or without the extracted compounds in 0.25 ml of a medium (50 mM Tris-HCl (pH 7.4), 5 mM MnCl2, 20 μg/ml chymostatin, 40 μg/ml bacitracin, 4 μg/ml leupeptin, 5 μg/ml p-APMSF, 200 μg/ml BSA) at 22° C. for 90 min. At the end of the incubation period, the contents were quickly filtered through a Blue Mat 11740 filter (pretreated with 0.1% polyethylenimine for 3 hours prior to use) by using SKATRON Cell Harvester. The filter was then washed with a washing buffer (50 mM Tris-HCl (pH 7.4), 5 mM MnCl2). The radioactivity was counted by using an auto gamma counter (Packard RIASTAR 5420A). All data presented are specific binding defined as that displaceable by 3 μM unlabeled Substance P.

T1 sequence (P25103 whole entry): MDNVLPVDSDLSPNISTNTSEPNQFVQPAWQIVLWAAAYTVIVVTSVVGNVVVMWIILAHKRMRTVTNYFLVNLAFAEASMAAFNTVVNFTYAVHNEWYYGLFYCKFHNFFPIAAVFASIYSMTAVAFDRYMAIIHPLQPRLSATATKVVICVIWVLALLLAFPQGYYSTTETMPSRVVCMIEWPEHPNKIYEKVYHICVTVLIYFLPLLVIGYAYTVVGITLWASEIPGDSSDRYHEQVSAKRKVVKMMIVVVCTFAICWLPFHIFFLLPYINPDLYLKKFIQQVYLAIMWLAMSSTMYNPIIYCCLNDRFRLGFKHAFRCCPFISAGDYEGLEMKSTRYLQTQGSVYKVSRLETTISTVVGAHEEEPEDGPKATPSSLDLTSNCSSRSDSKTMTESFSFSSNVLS

For the compound `COC[C@@H]1CN(CC#CCN2CCN(C(=O)c3cc(C(F)(F)F)cc(C(F)(F)F)c3)[C@H](Cc3ccc(C)c(C)c3)C2)CCO1.Cl.Cl` [71-(5), (2R)-1-[3,5-Bis(trifluoromethyl)benzoyl]-2-(3,4-dimethylbenzyl)-4-[4-((2S)-2-methoxymethylmorpholino)-2-butynyl]piperazine dihydrochloride], the melting point – broadly, the temperature of the solid-liquid transition – fell in the range of 85 to 95 °C. The inhibition (commonly the relative decrease from the control value, in per cent) at 1 mg/kg in data set [1] was > 80%.
In turn, `COC[C@H]1CN(CC#CCN2CCN(C(=O)c3cc(C(F)(F)F)cc(C(F)(F)F)c3)[C@H](Cc3ccc(C)c(C)c3)C2)CCO1.Cl.Cl` [71-(6), (2R)-1-[3,5-Bis(trifluoromethyl)benzoyl]-2-(3,4-dimethylbenzyl)-4-[4-((2R)-2-methoxymethylmorpholino)-2-butynyl]piperazine dihydrochloride] displayed a melting point of 80 to 90 °C. Besides, the inhibition at 1 mg/kg in data set [1] is > 80%.
The like results for `COC[C@H]1COCCN1C/C=C/CN1CCN(C(=O)c2cc(C(F)(F)F)cc(C(F)(F)F)c2)[C@H](Cc2ccc(C)c(C)c2)C1.Cl.Cl` [73-(3), (2R)-1-[3,5-Bis(trifluoromethyl)benzoyl]-2-(3,4-dimethylbenzyl)-4-[(E)-4-((3S)-3-methoxymethylmorpholino)-2-butenyl]piperazine dihydrochloride] were, in that order, 130 to 140 °C and > 80%.
The like results for `Cc1ccc(C[C@@H]2CN(CCCN3CCOCC3(C)C)CCN2C(=O)c2cc(C(F)(F)F)cc(C(F)(F)F)c2)cc1C.Cl.Cl` [78-(4), (2R)-1-[3,5-Bis(trifluoromethyl)benzoyl]-2-(3,4-dimethylbenzyl)-4-[3-(3,3-dimethylmorpholino)propyl]piperazine dihydrochloride] were, in that order, 197 °C and > 80%.
The like results for `CC1(C)COCCN1CCN1CCN(C(=O)c2cc(C(F)(F)F)cc(C(F)(F)F)c2)[C@H](Cc2c[nH]c3ccccc23)C1.Cl.Cl` [79-(1), (2R)-1-[3,5-Bis(trifluoromethyl)benzoyl]-4-[2-(3,3-dimethylmorpholino)ethyl]-2-[(1H-indol-3-yl)methyl]piperazine dihydrochloride] were, in that order, 247 to 258 °C and > 80%.
With `Cc1ccc(C[C@@H]2CN(CCN3CCOCC3(C)C)CCN2C(=O)c2cc(C(F)(F)F)cc(C(F)(F)F)c2)cc1C.Cl.Cl` [79-(2), (2R)-1-[3,5-Bis(trifluoromethyl)benzoyl]-2-(3,4-dimethylbenzyl)-4-[2-(3,3-dimethylmorpholino)ethyl]piperazine dihydrochloride], the melting point is 190 to 210 °C. Further, the inhibition at 1 mg/kg in data set [1] was > 80%.
In the same order, the values of `Cc1ccc(C[C@@H]2CN(CCN3CCOC[C@@H]3CO)CCN2C(=O)c2cc(C(F)(F)F)cc(C(F)(F)F)c2)cc1C.Cl.Cl` [80-(2), (2R)-1-[3,5-Bis(trifluoromethyl)benzoyl]-2-(3,4-dimethylbenzyl)-4-[2-((3S)-3-hydroxymethylmorpholino)ethyl]piperazine dihydrochloride] are 150 to 160 °C and > 80%.
In the same order, the values of `COC[C@H]1COCCN1CCN1CCN(C(=O)c2cc(C(F)(F)F)cc(C(F)(F)F)c2)[C@H](Cc2ccc(C)c(C)c2)C1.Cl.Cl` [80-(4), (2R)-1-[3,5-Bis(trifluoromethyl)benzoyl]-2-(3,4-dimethylbenzyl)-4-[2-((3S)-3-methoxymethylmorpholino)ethyl]piperazine dihydrochloride] are 90 to 100 °C and > 80%.
Regarding `COC[C@H]1COCCN1CCCN1CCN(C(=O)c2cc(C(F)(F)F)cc(C(F)(F)F)c2)[C@H](Cc2ccc(C)c(C)c2)C1.Cl.Cl` [80-(6), (2R)-1-[3,5-Bis(trifluoromethyl)benzoyl]-2-(3,4-dimethylbenzyl)-4-[3-((3S)-3-methoxymethylmorpholino)propyl]piperazine dihydrochloride], the melting point is 55 to 60 °C. Moreover, in data set [1], the inhibition at 1 mg/kg was > 80%.
The like results for `COCC1CN(CCCN2CCN(C(=O)c3cc(C(F)(F)F)cc(C(F)(F)F)c3)[C@H](Cc3ccc(C)c(C)c3)C2)CCO1.Cl` (stereo partly drawn) [80-(7), (2R)-1-[3,5-Bis(trifluoromethyl)benzoyl]-2-(3,4-dimethylbenzyl)-4-[3-(2-methoxymethylmorpholino)propyl]piperazine hydrochloride] were, in that order, 145 to 155 °C and > 80%.
`Cc1ccc(C[C@@H]2CN(CCN3CCOC[C@@H]3CF)CCN2C(=O)c2cc(C(F)(F)F)cc(C(F)(F)F)c2)cc1C.Cl.Cl` [81-(1), (2R)-1-[3,5-Bis(trifluoromethyl)benzoyl]-2-(3,4-dimethylbenzyl)-4-[2-((3R)-3-fluoromethylmorpholino)ethyl]piperazine dihydrochloride] yielded a melting point of 145 to 155 °C. Also, the inhibition at 1 mg/kg in data set [1] is > 80%.
For `COCC1(C)COCCN1CCN1CCN(C(=O)c2cc(C(F)(F)F)cc(C(F)(F)F)c2)[C@H](Cc2ccc(C)c(C)c2)C1.Cl.Cl` (stereo partly drawn) [81-(2), (2R)-1-[3,5-Bis(trifluoromethyl)benzoyl]-2-(3,4-dimethylbenzyl)-4-[2-(3-methoxymethyl-3-methylmorpholino)ethyl]piperazine dihydrochloride], the melting point was 60 to 70 °C. Moreover, in data set [1], the inhibition at 1 mg/kg is > 80%.
In the same order, the values of `CCOC[C@H]1COCCN1CCN1CCN(C(=O)c2cc(C(F)(F)F)cc(C(F)(F)F)c2)[C@H](Cc2ccc(C)c(C)c2)C1.Cl.Cl` [81-(3), (2R)-1-[3,5-Bis(trifluoromethyl)benzoyl]-2-(3,4-dimethylbenzyl)-4-[2-((3S)-3-ethoxymethylmorpholino)ethyl]piperazine dihydrochloride] are 60 to 65 °C and > 80%.
As for `COC[C@@H]1COCCN1CCN1CCN(C(=O)c2cc(C(F)(F)F)cc(C(F)(F)F)c2)[C@H](Cc2ccc(C)c(C)c2)C1.Cl.Cl` [81-(4), (2R)-1-[3,5-Bis(trifluoromethyl)benzoyl]-2-(3,4-dimethylbenzyl)-4-[2-((3R)-3-methoxymethylmorpholino)ethyl]piperazine dihydrochloride], the melting point fell in the range of 90 to 100 °C. Besides, the inhibition at 1 mg/kg in data set [1] is > 80%.
As to `COC[C@H]1CN(CCN2CCN(C(=O)c3cc(C(F)(F)F)cc(C(F)(F)F)c3)[C@H](Cc3ccc(C)c(C)c3)C2)CCO1.Cl.Cl` [81-(5), (2R)-1-[3,5-Bis(trifluoromethyl)benzoyl]-2-(3,4-dimethylbenzyl)-4-[2-((2R)-2-methoxymethylmorpholino)ethyl]piperazine dihydrochloride], the melting point was in the range of 160 to 170 °C. In data set [1], the inhibition at 1 mg/kg was > 80%.
`CC1(C)COCCN1CC#CCN1CCN(C(=O)c2cc(C(F)(F)F)cc(C(F)(F)F)c2)C(Cc2cc3ccccc3[nH]2)C1.Cl.Cl` (stereo not drawn) [89-(1), 1-[3,5-Bis(trifluoromethyl)benzoyl]-2-[(1H-indol-2-yl)methyl]-4-[4-(3,3-dimethylmorpholino)-2-butynyl]piperazine dihydrochloride]: the melting point was 185 °C. Moreover, the inhibition at 1 mg/kg in data set [1] was > 80%.
Regarding `CN(C)c1cc(C(=O)N2CCN(CC#CCN3CCOCC3(C)C)C[C@H]2Cc2c[nH]c3ccccc23)cc(C(F)(F)F)c1.Cl.Cl` [90-(2), (2R)-1-[3-(Dimethylamino)-5-(trifluoromethyl)benzoyl]-4-[4-(3,3-dimethylmorpholino)-2-butynyl]-2-[(1H-indol-3-yl)methyl]piperazine dihydrochloride], the melting point lay in the range of 210 to 225 °C. Further, in data set [1], the inhibition at 1 mg/kg is > 80%.
The like results for `CC1(C)COCCN1CC#CCN1CCN(C(=O)c2cc([N+](=O)[O-])cc(C(F)(F)F)c2)[C@H](Cc2c[nH]c3ccccc23)C1.Cl.Cl` [90-(3), (2R)-4-[4-(3,3-Dimethylmorpholino)-2-butynyl]-2-[(1H-indol-3-yl)methyl]-1-[3-nitro-5-(trifluoromethyl)benzoyl]piperazine dihydrochloride] were, in that order, 198 to 220 °C and > 80%.
